From US20100267561A1, “HERBICIDAL PYRIDAZINONE DERIVATIVES” (priority 2007, published 2010)

Legend:
Test in all cases: Test E pre-/postemergence plant response
Format in all cases: in vivo
[1] = tested on: annual bluegrass (Poa annua); conditions: scale 0 to 100
From the text: (§1) Seeds of plant species selected from bermudagrass (Cynodon dactylon), Surinam grass (Brachiaria decumbens), large crabgrass (Digitaria sanguinalis), green foxtail (Setaria viridis), goosegrass (Eleusine indica), johnsongrass (Sorghum halepense), kochia (Kochia scoparia), pitted morningglory (Ipomoea lacunosa), purple nutsedge (Cyperus rotundus), common ragweed (Ambrosia elation), black mustard (Brassica nigra), guineagrass (Panicum maximum), dallisgrass (Paspalum dilatatum), barnyardgrass (Echinochloa crus-galli), southern (S.) sandbur (Cenchrus echinatus), common sowthistle (Sonchus oleraceous), prickly sida (Sida spinosa), Italian ryegrass (Lolium multiflorum), common purslane (Portulaca oleracea), broadleaf signalgrass (Brachiaria platyphylla), common groundsel (Senecio vulgaris), common chickweed (Stellaria media), Virginia (V.) dayflower (Commelina virginica), tropical (T.) spiderwort (Commelina benghalensis), annual bluegrass (Poa annua), naked crabgrass (Digitaria nuda), itchgrass (Rottboellia cochinchinensis), quackgrass (Elytrigia repens), Canada horseweed (Conyza canadensis), field bindweed (Convolvulus arvensis), spanishneedles (Bidens bipinnata), common mallow (Malva sylvestris) and Russian thistle (Salsola kali) were planted and treated preemergence with test chemicals formulated in a non-phytotoxic solvent mixture which included a surfactant. At the same time, plants selected from these weed species were treated with postemergence applications of some of the test chemicals formulated in the same manner. Plants ranged in height from 2 to 18 cm (1- to 4-leaf stage) for postemergence treatments.
(§2) Treated plants and controls were maintained in a greenhouse for 14 to 21 days, after which time all species were compared to controls and visually evaluated. Plant response ratings, summarized in Table E, are based on a scale of 0 to 100 where 0 is no effect and 100 is complete control. A dash (-) response means no test result.

[2] = tested on: barnyardgrass (Echinochloa crus-galli); conditions: scale 0 to 100
From the text: as §1, §2

[3] = tested on: broadleaf signalgrass (Brachiaria platyphylla); conditions: scale 0 to 100
From the text: as §1, §2

[4] = tested on: common groundsel (Senecio vulgaris); conditions: Postemergence, scale 0 to 100
From the text: as §1, §2

[5] = tested on: common mallow (Malva sylvestris); conditions: scale 0 to 100
From the text: as §1, §2

[6] = tested on: guineagrass (Panicum maximum); conditions: scale 0 to 100
From the text: as §1, §2

[7] = tested on: itchgrass (Rottboellia cochinchinensis); conditions: scale 0 to 100
From the text: as §1, §2

[8] = tested on: naked crabgrass (Digitaria nuda); conditions: scale 0 to 100
From the text: as §1, §2

[9] = tested on: pitted morningglory (Ipomoea lacunosa); conditions: scale 0 to 100
From the text: as §1, §2

[10] = tested on: quackgrass (Elytrigia repens); conditions: scale 0 to 100
From the text: as §1, §2

[11] = tested on: surinam grass (Brachiaria decumbens); conditions: scale 0 to 100
From the text: as §1, §2

Structure (SMILES): Cn1ncc(O)c(-c2nn(-c3ccc(Cl)cc3)cc2Br)c1=O [Compound 31]
- Plant response rating, Bluegrass ([1]; 8 g ai/ha, Preemergence): 0
- Plant response rating, Bluegrass ([1]; 16 g ai/ha, Preemergence): 0
- Plant response rating, Bluegrass ([1]; 31 g ai/ha, Preemergence): 0
- Plant response rating, Bluegrass ([1]; 62 g ai/ha, Preemergence): 0
- Plant response rating, Bluegrass ([1]; Postemergence, 8 g ai/ha): 0
- Plant response rating, Bluegrass ([1]; Postemergence, 16 g ai/ha): 0
- Plant response rating, Bluegrass ([1]; Postemergence, 31 g ai/ha): 0
- Plant response rating, Bluegrass ([1]; Postemergence, 62 g ai/ha): 10
- Plant response rating, Barnyardgrass ([2]; 8 g ai/ha, Preemergence): 0
- Plant response rating, Barnyardgrass ([2]; 16 g ai/ha, Preemergence): 15
- Plant response rating, Barnyardgrass ([2]; 31 g ai/ha, Preemergence): 75
- Plant response rating, Barnyardgrass ([2]; 62 g ai/ha, Preemergence): 90
- Plant response rating, Barnyardgrass ([2]; Postemergence, 8 g ai/ha): 35
- Plant response rating, Barnyardgrass ([2]; Postemergence, 16 g ai/ha): 70
- Plant response rating, Barnyardgrass ([2]; Postemergence, 31 g ai/ha): 75
- Plant response rating, Barnyardgrass ([2]; Postemergence, 62 g ai/ha): 100
- Plant response rating, Signalgrass ([3]; 16 g ai/ha, Preemergence): 15
- Plant response rating, Signalgrass ([3]; 31 g ai/ha, Preemergence): 65
- Plant response rating, Signalgrass ([3]; 62 g ai/ha, Preemergence): 80
- Plant response rating, Signalgrass ([3]; Postemergence, 8 g ai/ha): 65
- Plant response rating, Signalgrass ([3]; Postemergence, 16 g ai/ha): 65
- Plant response rating, Signalgrass ([3]; Postemergence, 31 g ai/ha): 75
- Plant response rating, Signalgrass ([3]; Postemergence, 62 g ai/ha): 75
- Plant response rating, Groundsel ([4]; 8 g ai/ha): 0
- Plant response rating, Groundsel ([4]; 16 g ai/ha): 0
- Plant response rating, Mallow ([5]; 31 g ai/ha, Preemergence): 0
- Plant response rating, Mallow ([5]; 62 g ai/ha, Preemergence): 0
- Plant response rating, Mallow ([5]; Postemergence, 8 g ai/ha): 0
- Plant response rating, Mallow ([5]; Postemergence, 16 g ai/ha): 0
- Plant response rating, Mallow ([5]; Postemergence, 31 g ai/ha): 0
- Plant response rating, Mallow ([5]; Postemergence, 62 g ai/ha): 0
- Plant response rating, Guineagrass ([6]; 16 g ai/ha, Preemergence): 90
- Plant response rating, Guineagrass ([6]; 31 g ai/ha, Preemergence): 100
- Plant response rating, Guineagrass ([6]; 62 g ai/ha, Preemergence): 100
- Plant response rating, Guineagrass ([6]; Postemergence, 8 g ai/ha): 75
- Plant response rating, Guineagrass ([6]; Postemergence, 16 g ai/ha): 80
- Plant response rating, Guineagrass ([6]; Postemergence, 31 g ai/ha): 85
- Plant response rating, Guineagrass ([6]; Postemergence, 62 g ai/ha): 90
- Plant response rating, Itchgrass ([7]; 16 g ai/ha, Preemergence): 0
- Plant response rating, Itchgrass ([7]; 31 g ai/ha, Preemergence): 75
- Plant response rating, Itchgrass ([7]; 62 g ai/ha, Preemergence): 75
- Plant response rating, Itchgrass ([7]; Postemergence, 8 g ai/ha): 50
- Plant response rating, Itchgrass ([7]; Postemergence, 16 g ai/ha): 60
- Plant response rating, Itchgrass ([7]; Postemergence, 31 g ai/ha): 65
- Plant response rating, Itchgrass ([7]; Postemergence, 62 g ai/ha): 70
- Plant response rating, Crabgrass, Naked ([8]; 8 g ai/ha, Preemergence): 0
- Plant response rating, Crabgrass, Naked ([8]; 16 g ai/ha, Preemergence): 50
- Plant response rating, Crabgrass, Naked ([8]; 31 g ai/ha, Preemergence): 98
- Plant response rating, Crabgrass, Naked ([8]; 62 g ai/ha, Preemergence): 100
- Plant response rating, Crabgrass, Naked ([8]; Postemergence, 8 g ai/ha): 30
- Plant response rating, Crabgrass, Naked ([8]; Postemergence, 16 g ai/ha): 65
- Plant response rating, Crabgrass, Naked ([8]; Postemergence, 31 g ai/ha): 75
- Plant response rating, Crabgrass, Naked ([8]; Postemergence, 62 g ai/ha): 90
- Plant response rating, Morningglory ([9]; 16 g ai/ha, Preemergence): 0
- Plant response rating, Morningglory ([9]; 31 g ai/ha, Preemergence): 0
- Plant response rating, Morningglory ([9]; 62 g ai/ha, Preemergence): 0
- Plant response rating, Morningglory ([9]; Postemergence, 8 g ai/ha): 0
- Plant response rating, Morningglory ([9]; Postemergence, 16 g ai/ha): 0
- Plant response rating, Morningglory ([9]; Postemergence, 31 g ai/ha): 0
- Plant response rating, Morningglory ([9]; Postemergence, 62 g ai/ha): 0
- Plant response rating, Quackgrass ([10]; 16 g ai/ha, Preemergence): 0
- Plant response rating, Quackgrass ([10]; 31 g ai/ha, Preemergence): 20
- Plant response rating, Quackgrass ([10]; 62 g ai/ha, Preemergence): 65
- Plant response rating, Quackgrass ([10]; Postemergence, 8 g ai/ha): 0
- Plant response rating, Quackgrass ([10]; Postemergence, 16 g ai/ha): 30
- Plant response rating, Quackgrass ([10]; Postemergence, 31 g ai/ha): 30
- Plant response rating, Quackgrass ([10]; Postemergence, 62 g ai/ha): 50
- Plant response rating, Surinam Grass ([11]; 16 g ai/ha, Preemergence): 20
- Plant response rating, Surinam Grass ([11]; 31 g ai/ha, Preemergence): 95
- Plant response rating, Surinam Grass ([11]; 62 g ai/ha, Preemergence): 95
- Plant response rating, Surinam Grass ([11]; Postemergence, 8 g ai/ha): 20
- Plant response rating, Surinam Grass ([11]; Postemergence, 16 g ai/ha): 50
- Plant response rating, Surinam Grass ([11]; Postemergence, 31 g ai/ha): 50
- Plant response rating, Surinam Grass ([11]; Postemergence, 62 g ai/ha): 75
